The source made the active and inactive calls. How the calls were made is not given here.
Tested on: CCRIS mutagenicity, Ames/micronucleus/aberration tests
Assay: CCRIS mutagenicity studies
[1] = Test System: AMES SALMONELLA TYPHIMURIUM, Strain/Indicator: TA98, Metabolic Activation: NONE, Method: STANDARD PLATE
[2] = Test System: AMES SALMONELLA TYPHIMURIUM, Strain/Indicator: TA98, Metabolic Activation: RAT, LIVER, S-9, AROCLOR 1254, Method: STANDARD PLATE
[3] = Test System: AMES SALMONELLA TYPHIMURIUM, Strain/Indicator: TA100, Metabolic Activation: NONE, Method: STANDARD PLATE
[4] = Test System: AMES SALMONELLA TYPHIMURIUM, Strain/Indicator: TA100, Metabolic Activation: RAT, LIVER, S-9, AROCLOR 1254, Method: STANDARD PLATE

Oc1cccc(O)c1
mutagenic call (End Point: In vitro chromosomal aberrations, Test System: Chinese hamster lung (CHL/IU) cells, Metabolic Activation: Rat, Liver, S9, Phenobarbital and 5,6-benzoflavone): active; positive (structural changes and ploidy). weak response. | mutagenic call (End Point: MORPHOLOGICAL TRANSFORMATION, Test System: SYRIAN HAMSTER EMBRYO CELLS (SHE)): inactive; negative | mutagenic call (End Point: MORPHOLOGICAL TRANSFORMATION, Test System: SYRIAN HAMSTER EMBRYO CELLS (SHE), Metabolic Activation: NONE): inactive; negative | mutagenic call (Test System: AMES SALMONELLA TYPHIMURIUM, Strain/Indicator: TA97, Metabolic Activation: NONE, Method: PREINCUBATION): inactive; negative | mutagenic call (Test System: AMES SALMONELLA TYPHIMURIUM, Strain/Indicator: TA97, Metabolic Activation: RAT, LIVER, S-9, PHENOBARBITAL, Method: PREINCUBATION): inactive; negative | mutagenic call (Test System: AMES SALMONELLA TYPHIMURIUM, Strain/Indicator: TA98, Metabolic Activation: HAMSTER, LIVER, S-9, AROCLOR 1254 (10%), Method: PREINCUBATION): inactive; negative | mutagenic call (Test System: AMES SALMONELLA TYPHIMURIUM, Strain/Indicator: TA98, Metabolic Activation: NONE): inactive; negative | mutagenic call (Test System: AMES SALMONELLA TYPHIMURIUM, Strain/Indicator: TA98, Metabolic Activation: NONE, Method: PREINCUBATION): inactive; negative | mutagenic call (Test System: AMES SALMONELLA TYPHIMURIUM, Strain/Indicator: TA98, Metabolic Activation: RAT, LIVER, S-9, AROCLOR 1254 (10%), Method: PREINCUBATION): inactive; negative | mutagenic call (Test System: AMES SALMONELLA TYPHIMURIUM, Strain/Indicator: TA98, Metabolic Activation: RAT, LIVER, S-9, PHENOBARBITAL, Method: PREINCUBATION): inactive; negative | mutagenic call (Test System: AMES SALMONELLA TYPHIMURIUM, Strain/Indicator: TA98, Metabolic Activation: RAT, LIVER, S-9, SODIUM PHENOBARBITAL AND 5,6-BENZOFLAVONE, Method: PREINCUBATION): inactive; negative | mutagenic call (Test System: AMES SALMONELLA TYPHIMURIUM, Strain/Indicator: TA98, Metabolic Activation: RAT, LIVER, S-9, Method: STANDARD PLATE): active; positive | mutagenic call (Test System: AMES SALMONELLA TYPHIMURIUM, Strain/Indicator: TA98, Metabolic Activation: S-9): inactive; negative | mutagenic call (Test System: AMES SALMONELLA TYPHIMURIUM, Strain/Indicator: TA100, Metabolic Activation: HAMSTER, LIVER, S-9, AROCLOR 1254 (10%), Method: PREINCUBATION): inactive; negative | mutagenic call (Test System: AMES SALMONELLA TYPHIMURIUM, Strain/Indicator: TA100, Metabolic Activation: NONE, Method: PREINCUBATION): inactive; negative | mutagenic call (Test System: AMES SALMONELLA TYPHIMURIUM, Strain/Indicator: TA100, Metabolic Activation: RAT, LIVER, S-9, AROCLOR 1254 (10%), Method: PREINCUBATION): inactive; negative | mutagenic call (Test System: AMES SALMONELLA TYPHIMURIUM, Strain/Indicator: TA100, Metabolic Activation: RAT, LIVER, S-9, SODIUM PHENOBARBITAL AND 5,6-BENZOFLAVONE, Method: PREINCUBATION): inactive; negative | mutagenic call (Test System: AMES SALMONELLA TYPHIMURIUM, Strain/Indicator: TA102, Metabolic Activation: NONE, Method: PREINCUBATION): inactive; negative | mutagenic call (Test System: AMES SALMONELLA TYPHIMURIUM, Strain/Indicator: TA102, Metabolic Activation: RAT, LIVER, S-9, SODIUM PHENOBARBITAL AND 5,6-BENZOFLAVONE, Method: PREINCUBATION): inactive; negative | mutagenic call (Test System: AMES SALMONELLA TYPHIMURIUM, Strain/Indicator: TA104, Metabolic Activation: NONE, Method: PREINCUBATION): inactive; negative | mutagenic call (Test System: AMES SALMONELLA TYPHIMURIUM, Strain/Indicator: TA104, Metabolic Activation: RAT, LIVER, S-9, SODIUM PHENOBARBITAL AND 5,6-BENZOFLAVONE, Method: PREINCUBATION): inactive; negative | mutagenic call (Test System: AMES SALMONELLA TYPHIMURIUM, Strain/Indicator: TA1535, Metabolic Activation: HAMSTER, LIVER, S-9, AROCLOR 1254 (10%), Method: PREINCUBATION): inactive; negative | mutagenic call (Test System: AMES SALMONELLA TYPHIMURIUM, Strain/Indicator: TA1535, Metabolic Activation: NONE, Method: PREINCUBATION): inactive; negative | mutagenic call (Test System: AMES SALMONELLA TYPHIMURIUM, Strain/Indicator: TA1535, Metabolic Activation: RAT, LIVER, S-9, AROCLOR 1254 (10%), Method: PREINCUBATION): inactive; negative | mutagenic call (Test System: AMES SALMONELLA TYPHIMURIUM, Strain/Indicator: TA1535, Metabolic Activation: RAT, LIVER, S-9, SODIUM PHENOBARBITAL AND 5,6-BENZOFLAVONE, Method: PREINCUBATION): inactive; negative | mutagenic call (Test System: AMES SALMONELLA TYPHIMURIUM, Strain/Indicator: TA1537, Metabolic Activation: HAMSTER, LIVER, S-9, AROCLOR 1254 (10%), Method: PREINCUBATION): inactive; negative | mutagenic call (Test System: AMES SALMONELLA TYPHIMURIUM, Strain/Indicator: TA1537, Metabolic Activation: NONE, Method: PREINCUBATION): inactive; negative | mutagenic call (Test System: AMES SALMONELLA TYPHIMURIUM, Strain/Indicator: TA1537, Metabolic Activation: RAT, LIVER, S-9, AROCLOR 1254 (10%), Method: PREINCUBATION): inactive; negative | mutagenic call (Test System: AMES SALMONELLA TYPHIMURIUM, Strain/Indicator: TA1537, Metabolic Activation: RAT, LIVER, S-9, SODIUM PHENOBARBITAL AND 5,6-BENZOFLAVONE, Method: PREINCUBATION): inactive; negative | mutagenic call (Test System: E. COLI, Strain/Indicator: B/R WP2 (TRP-HCR-), Metabolic Activation: RAT, LIVER, S-9, Method: STANDARD PLATE): active; positive | mutagenic call (Test System: E. COLI, Strain/Indicator: WP2UVRA/PKM101, Metabolic Activation: NONE, Method: PREINCUBATION): inactive; negative | mutagenic call (Test System: E. COLI, Strain/Indicator: WP2UVRA/PKM101, Metabolic Activation: RAT, LIVER, S-9, SODIUM PHENOBARBITAL AND 5,6-BENZOFLAVONE, Method: PREINCUBATION): inactive; negative | mutagenic call (Test System: E. COLI, Strain/Indicator: WP2UVRA, Metabolic Activation: NONE, Method: PREINCUBATION): inactive; negative | mutagenic call (Test System: E. COLI, Strain/Indicator: WP2UVRA, Metabolic Activation: RAT, LIVER, S-9, SODIUM PHENOBARBITAL AND 5,6-BENZOFLAVONE, Method: PREINCUBATION): inactive; negative | mutagenic call (Test System: MOUSE LYMPHOMA, Strain/Indicator: L5178Y (TK+/TK-), Metabolic Activation: NONE, Method: SUSPENSION/PLATE): active; positive

O=C(/C=C/c1ccc(O)cc1)c1ccccc1
mutagenic call [1]: inactive; negative | mutagenic call [2]: inactive; negative | mutagenic call [3]: inactive; negative | mutagenic call [4]: inactive; negative

CCc1ccc(N)cc1
mutagenic call (Test System: E. COLI, Strain/Indicator: WP2 UVRA, Metabolic Activation: NONE, Method: FLUCTUATION TEST): inactive; negative

O=[N+]([O-])c1ccc2[nH]ccc2c1
mutagenic call [1]: active; positive

CC(=O)O[C@H]1C[C@@H]2[C@@]3(C)CCCC(C)(C)[C@@H]3CC[C@@]2(C)[C@@H]2CC=C(C=O)[C@H](C=O)[C@@]12C
mutagenic call [1]: inactive; negative | mutagenic call [3]: inactive; negative | mutagenic call (Test System: AMES SALMONELLA TYPHIMURIUM, Strain/Indicator: TA2637, Metabolic Activation: NONE, Method: STANDARD PLATE): inactive; negative

O=PO.O=PO.[Mn+2]
mutagenic call [1]: inactive; negative | mutagenic call [2]: inactive; negative | mutagenic call [3]: inactive; negative | mutagenic call [4]: inactive; negative | mutagenic call (Test System: AMES SALMONELLA TYPHIMURIUM, Strain/Indicator: TA1535, Metabolic Activation: NONE, Method: STANDARD PLATE): inactive; negative | mutagenic call (Test System: AMES SALMONELLA TYPHIMURIUM, Strain/Indicator: TA1535, Metabolic Activation: RAT, LIVER, S-9, AROCLOR 1254, Method: STANDARD PLATE): inactive; negative | mutagenic call (Test System: AMES SALMONELLA TYPHIMURIUM, Strain/Indicator: TA1537, Metabolic Activation: NONE, Method: STANDARD PLATE): inactive; negative | mutagenic call (Test System: AMES SALMONELLA TYPHIMURIUM, Strain/Indicator: TA1537, Metabolic Activation: RAT, LIVER, S-9, AROCLOR 1254, Method: STANDARD PLATE): inactive; negative | mutagenic call (Test System: AMES SALMONELLA TYPHIMURIUM, Strain/Indicator: TA1538, Metabolic Activation: NONE, Method: STANDARD PLATE): inactive; negative | mutagenic call (Test System: AMES SALMONELLA TYPHIMURIUM, Strain/Indicator: TA1538, Metabolic Activation: RAT, LIVER, S-9, AROCLOR 1254, Method: STANDARD PLATE): inactive; negative | mutagenic call (Test System: E. COLI, Strain/Indicator: WP2, Metabolic Activation: NONE, Method: STANDARD PLATE): inactive; negative | mutagenic call (Test System: E. COLI, Strain/Indicator: WP2, Metabolic Activation: RAT, LIVER, S-9, AROCLOR 1254, Method: STANDARD PLATE): inactive; negative

From PubChem BioAssay AID1259407 (Chemical Carcinogenesis Research Information System (CCRIS), 2018)
